Source: patent US12643892B2, “Pyridazinone compounds for the treatment of neuromuscular diseases” (Edgewise Therapeutics, Inc., priority 2020, dated 2026)

Biological target: Skeletal Myofibril ATPase (Rabbit Psoas myofibrils)
Assay: Skeletal Myofibril ATPase Assay
Format: biochemical
Settings: PK/LDH-coupled NADH absorbance at 340 nm
Summary of the method: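 Rabbit psoas myofibril ATPase read through a PK-LDH coupled system, as NADH loss at 340 nm every 1.5-2 min for 1 h, in PIPES/CaCl2/EGTA pCa buffer at pH 7.0. Absorbance change normalized to 1% DMSO vehicle (100%) and no change (0%). IC50 from a four-parameter logistic fit with bottom constrained ≥0.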

`CCNC(=O)Cn1nc(-c2ncc(-c3cccc(Cl)c3)o2)ccc1=O` [Compound 27, 2-(3-(5-(3-chlorophenyl)oxazol-2-yl)-6-oxopyridazin-1(6H)-yl)-N-ethylacetamide] and `CCNC(=O)Cn1nc(-c2nc(-c3cccc(Cl)c3)no2)ccc1=O` [Compound 14, 2-(3-(3-(3-chlorophenyl)-1,2,4-oxadiazol-5-yl)-6-oxopyridazin-1(6H)-yl)-N-ethylacetamide] cannot be ordered by IC50: no more than 10 µM for the first, no more than 10 µM for the second.

`CCNC(=O)Cn1nc(-c2nc(-c3ccccc3)no2)ccc1=O` [Compound 16, N-ethyl-2-(6-oxo-3-(3-phenyl-1,2,4-oxadiazol-5-yl)pyridazin-1(6H)-yl)acetamide] and `CCNC(=O)Cn1nc(-c2noc(-c3cccc(Cl)c3)n2)ccc1=O` [Compound 31, 2-(3-(5-(3-chlorophenyl)-1,2,4-oxadiazol-3-yl)-6-oxopyridazin-1(6H)-yl)-N-ethylacetamide] cannot be ordered by IC50: no more than 10 µM for the first, no more than 10 µM for the second.

First: O=c1ccc(-c2nc(-c3ccc(Cl)cc3)no2)cn1Cc1ccc(Cl)c(Cl)c1 [Compound 124, 5-(3-(4-chlorophenyl)-1,2,4-oxadiazol-5-yl)-1-(3,4-dichlorobenzyl)pyridm-2(1H)-one]
Second: O=c1ccc(-c2nc(-c3ccc(F)c(F)c3)no2)cn1Cc1cccnc1 [Compound 97, 5-(3-(3,4-difluorophenyl)-1,2,4-oxadiazol-5-yl)-1-(pyridin-3-ylmethyl)pyridin-2(1H)-one]
The IC50 of the first is higher: greater than 120 µM for the first, no more than 10 µM for the second. The second is the more potent here.

`O=C(Cn1nc(-c2nnc(-c3ccccn3)s2)ccc1=O)NC1CCC1` [Compound 22, N-cyclobutyl-2-(6-oxo-3-(5-(pyridin-2-yl)-1,3,4-thiadiazol-2-yl)pyridazin-1(6H)-yl)acetamide] and `Cc1ccc(-c2ccc(=O)n(CC(=O)NC3CCCC3)n2)s1` [Compound 39, N-cyclopentyl-2-(3-(5-methylthiophen-2-yl)-6-oxopyridazin-1(6H)-yl)acetamide] cannot be ordered by IC50: no more than 10 µM for the first, 10 to 100 µM for the second.

First: O=c1ccc(-c2nc(-c3ccncc3)no2)cn1Cc1ccccc1C(F)(F)F [Compound 120, 5-(3-(pyridin-4-yl)-1,2,4-oxadiazol-5-yl)-1-(2-(trifluoromethyl)benzyl)pyridin-2(1H)-one]
Second: O=c1ccc(-c2nc(-c3ccccc3)no2)cn1Cc1cccnc1 [Compound 107, 5-(3-phenyl-1,2,4-oxadiazol-5-yl)-1-(pyridin-3-ylmethyl)pyridin-2(1H)-one]
The IC50 of the first is higher: greater than 120 µM for the first, 10 to 100 µM for the second.

Compared with `O=c1ccc(-c2nc(-c3ccccc3F)no2)cn1Cc1cccnc1` [Compound 111, 5-(3-(2-fluorophenyl)-1,2,4-oxadiazol-5-yl)-1-(pyridin-3-ylmethyl)pyridin-2(1H)-one], `Cc1cccc(-c2noc(-c3ccc(=O)n(Cc4cccnc4)c3)n2)c1` [Compound 84, 1-(pyridin-3-ylmethyl)-5-(3-(m-tolyl)-1,2,4-oxadiazol-5-yl)pyridin-2(1H)-one] is lower in IC50: greater than 120 µM for the first, no more than 10 µM for the second. The second is the more potent here.

`Cc1ccc(-c2ccc(=O)n(CC(=O)NCc3ccccc3)n2)s1` [Compound 35, N-benzyl-2-(3-(5-methylthiophen-2-yl)-6-oxopyridazin-1(6H)-yl)acetamide] and `Cc1ccc(-c2ccc(=O)n(CC(=O)NCc3ccccc3F)n2)s1` [Compound 34, N-(2-fluorobenzyl)-2-(3-(5-methylthiophen-2-yl)-6-oxopyridazin-1(6H)-yl)acetamide] cannot be ordered by IC50: 10 to 100 µM for the first, no more than 10 µM for the second.

Going from `O=C(Cn1nc(-c2cccs2)ccc1=O)Nc1ccc(Cl)cc1Cl` [Compound 42, N-(2,4-dichlorophenyl)-2-(6-oxo-3-(thiophen-2-yl)pyridazin-1(6H)-yl)acetamide] to `Cn1ccc2c(NC(=O)Cn3nc(-c4cccs4)ccc3=O)cccc21` [Compound 83, N-(1-methyl-1H-indol-4-yl)-2-(6-oxo-3-(thiophen-2-yl)pyridazin-1(6H)-yl)acetamide], the IC50 falls from greater than 100 µM to no more than 10 µM. The second is the more potent here.

Compared with `O=c1ccc(-c2cccs2)nn1Cc1cccc(Cl)c1` [Compound 56, 2-(3-chlorobenzyl)-6-(thiophen-2-yl)pyridazin-3(2H)-one], `O=c1ccc(-c2cccs2)nn1C/C=C/c1ccccc1` [Compound 62, 2-cinnamyl-6-(thiophen-2-yl)pyridazin-3(2H)-one] is higher in IC50: no more than 10 µM for the first, greater than 100 µM for the second.

`Cc1noc(-c2ccc(=O)n(Cc3ccc(F)cc3)n2)n1` [Compound 69, 2-(4-fluorobenzyl)-6-(3-methyl-1,2,4-oxadiazol-5-yl)pyridazin-3(2H)-one] and `Cc1noc(-c2ccc(=O)n(Cc3cccc(F)c3)n2)n1` [Compound 72, 2-(3-fluorobenzyl)-6-(3-methyl-1,2,4-oxadiazol-5-yl)pyridazin-3(2H)-one] fall in the same range of IC50: 10 to 100 µM for the first, 10 to 100 µM for the second.

Compared with `O=c1ccc(-c2nc(-c3cccc(Cl)c3)no2)nn1Cc1cncc(F)c1` [Compound 64, 6-(3-(3-chlorophenyl)-1,2,4-oxadiazol-5-yl)-2-((5-fluoropyridin-3-yl)methyl)pyridazin-3(2H)-one], `CC(c1cncc(F)c1)n1cc(-c2nc(-c3cccc(Cl)c3)no2)ccc1=O` (centres unmarked) [Compound 117, 5-(3-(3-chlorophenyl)-1,2,4-oxadiazol-5-yl)-1-(1-(5-fluoropyridin-3-yl)ethyl)pyridin-2(1H)-one] is higher in IC50: no more than 10 µM for the first, greater than 120 µM for the second.

Going from `Cc1ccc(-c2noc(-c3ccc(=O)n(Cc4cccc(F)c4)n3)n2)cc1` [Compound 71, 2-(3-fluorobenzyl)-6-(3-(p-tolyl)-1,2,4-oxadiazol-5-yl)pyridazin-3(2H)-one] to `O=c1ccc(-c2nc(-c3cccc(F)c3)no2)cn1Cc1cncnc1` [Compound 106, 5-(3-(3-fluorophenyl)-1,2,4-oxadiazol-5-yl)-1-(pyrimidin-5-ylmethyl)pyridin-2(1H)-one], the IC50 falls from greater than 100 µM to no more than 10 µM.

`Cc1cccc(-c2noc(-c3ccc(=O)n(Cc4cncnc4)c3)n2)c1` [Compound 105, 1-(pyrimidin-5-ylmethyl)-5-(3-(m-tolyl)-1,2,4-oxadiazol-5-yl)pyridin-2(1H)-one] and `O=c1ccc(-c2nc(-c3cccc(Cl)c3)no2)cn1Cc1cncnc1` [Compound 85, 5-(3-(3-chlorophenyl)-l,2,4-oxadiazol-5-yl)-1-(pyrimidin-5-ylmethyl)pyridin-2(1H)-one] cannot be ordered by IC50: no more than 10 µM for the first, no more than 10 µM for the second.

`O=C(Cn1nc(-c2nc(-c3cccc(Cl)c3)no2)ccc1=O)NC1CCC1` [Compound 5, 2-(3-(3-(3-chlorophenyl)-1,2,4-oxadiazol-5-yl)-6-oxopyridazin-1(6H)-yl)-N-cyclobutylacetamide] and `CCNC(=O)Cn1nc(-c2nc(-c3cc(Cl)ccc3F)no2)ccc1=O` [Compound 1, 2-(3-(3-(5-chloro-2-fluorophenyl)-1,2,4-oxadiazol-5-yl)-6-oxopyridazin-1(6H)-yl)-N-ethylacetamide] cannot be ordered by IC50: no more than 10 µM for the first, no more than 10 µM for the second.

`Cc1cccc(-c2noc(-c3ccc(=O)n(Cc4nnc(C)o4)c3)n2)c1` [Compound 100, 1-((5-methyl-1,3,4-oxadiazol-2-yl)methyl)-5-(3-(m-tolyl)-1,2,4-oxadiazol-5-yl)pyridin-2(1H)-one] and `COc1cccc(-c2noc(-c3ccc(=O)n(Cc4cccnc4)c3)n2)c1` [Compound 101, 5-(3-(3-methoxyphenyl)-1,2,4-oxadiazol-5-yl)-1-(pyridin-3-ylmethyl)pyridin-2(1H)-one] cannot be ordered by IC50: no more than 10 µM for the first, no more than 10 µM for the second.

`CCNC(=O)Cn1nc(-c2nc(-c3cncc(C(F)(F)F)c3)no2)ccc1=O` [Compound 10, N-ethyl-2-(6-oxo-3-(3-(5-(trifluoromethyl)pyridin-3-yl)-1,2,4-oxadiazol-5-yl)pyridazin-1(6H)-yl)acetamide] gave an IC50 of no more than 10 µM.

System: embryos from zebrafish model of DMD
Assay: not given
Settings: FIG. 2, Li and Amer, PLoSONE, 2015; cited from earlier work

In the case of `Cc1ccc(S(=O)(=O)NCc2ccccc2)cc1` [BTS, N-benzyl-p-tolyl-sulfonamide], the “protection of muscles from pathological muscle derangement” value is given as “protect muscles from pathological muscle derangement”.
